According to patent US20240158446A1, “CYCLIC COMPOUND HAVING SELECTIVE INHIBITORY ACTION ON KRAS OVER HRAS AND NRAS” (CHUGAI SEIYAKU KABUSHIKI KAISHA, priority 2021, published 2024):
Where two headings read alike, the source gives them in different places.

Legend:
[1] = tested on: human lung cancer strain NCI-H441;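 note: cell proliferation inhibition after four days measured by CellTiter-Glo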
[2] = biological target: GDP-bound KRAS wild-type protein (Homo sapiens, UniProt P01116); test: Binding to KRAS by surface plasmon resonance (SPR), Single Cycle Kinetics; conditions: GDP-bound KRAS wild-type protein, read-out: KRAS KD
[3] = biological target: GDP-bound NRAS wild-type protein (Homo sapiens, UniProt P01111); test: Binding to NRAS by surface plasmon resonance (SPR), Single Cycle Kinetics; conditions: for NRAS/KRAS (ratio of KD value for NRAS to KD value for KRAS): SPR, GDP-bound NRAS wild-type protein vs GDP-bound KRAS wild-type protein
[4] = biological target: GDP-bound HRAS wild-type protein (Homo sapiens, UniProt P01112); test: Binding to HRAS by surface plasmon resonance (SPR), Single Cycle Kinetics; conditions: for HRAS/KRAS (ratio of KD value for HRAS to KD value for KRAS): SPR, GDP-bound HRAS wild-type protein vs GDP-bound KRAS wild-type protein
[5] = SPR, Single Cycle Kinetics, 1:1 binding model

Sequence of GDP-bound KRAS wild-type protein (P01116 whole entry): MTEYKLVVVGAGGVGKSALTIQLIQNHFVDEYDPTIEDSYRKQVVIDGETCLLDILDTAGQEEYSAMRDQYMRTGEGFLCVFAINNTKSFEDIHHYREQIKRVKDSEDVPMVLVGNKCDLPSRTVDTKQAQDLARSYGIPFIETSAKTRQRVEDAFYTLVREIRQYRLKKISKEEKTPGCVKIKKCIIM
Sequence of GDP-bound NRAS wild-type protein (P01111 whole entry): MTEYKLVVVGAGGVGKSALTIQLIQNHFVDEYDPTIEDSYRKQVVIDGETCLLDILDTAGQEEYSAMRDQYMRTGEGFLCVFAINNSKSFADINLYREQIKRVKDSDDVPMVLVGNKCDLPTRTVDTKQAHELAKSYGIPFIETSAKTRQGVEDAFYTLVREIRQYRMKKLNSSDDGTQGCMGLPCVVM
Sequence of GDP-bound HRAS wild-type protein (P01112 whole entry): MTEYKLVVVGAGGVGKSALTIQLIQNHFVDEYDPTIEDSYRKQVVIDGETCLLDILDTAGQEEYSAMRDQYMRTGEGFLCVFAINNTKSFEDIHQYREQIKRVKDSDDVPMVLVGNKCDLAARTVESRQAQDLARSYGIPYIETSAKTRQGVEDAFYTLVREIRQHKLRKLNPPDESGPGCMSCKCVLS

SMILES | IC50 [1] [nM] | Kd ([2]; SPR, Single Cycle Kinetics) [nM] | Kd [2, 5] [nM] | Kd ([2]; SPR Single Cycle Kinetics, 1:1 binding model) [nM] | NRAS/KRAS (ratio of KD value for NRAS to KD value for KRAS) [3] | HRAS/KRAS (ratio of KD value for HRAS to KD value for KRAS) [4] | NRAS/KRAS (ratio of KD value for NRAS to KD value for KRAS) ([3]; KD ratio class) | HRAS/KRAS (ratio of KD value for HRAS to KD value for KRAS) ([4]; KD ratio class) | NRAS/KRAS (ratio of KD value with respect to GDP-bound NRAS wild-type protein to KD value with respect to KRAS) ([3]; SPR KD ratio NRAS/KRAS, class symbols) | HRAS/KRAS (ratio of KD value with respect to GDP-bound HRAS wild-type protein to KD value with respect to KRAS) ([4]; SPR KD ratio HRAS/KRAS, class symbols)
CC[C@H](C)[C@@H]1NC(=O)[C@H](CC)N(C)C(=O)C[C@@H](C(=O)N(C)C)N(C)C(=O)[C@H](C2CCCC2)N(C)C(=O)C2(CCC2)NC(=O)[C@H](COCCC(C)C)N(C)C(=O)[C@H](CCc2cc(F)c(C(F)(F)F)c(F)c2)NC(=O)CN(C)C(=O)[C@H](Cc2ccc(C(F)(F)F)cc2)N2CC/C=C\C[C@@H](C2=O)N(C)C(=O)CN(C)C1=O [PP1148] | 357 | 1.2 |  |  | A (a compound having 10 or more and less than 20 is denoted as A) | A (a compound having 10 or more and less than 20 is denoted as A) |  |  |  | 
CC[C@H](C)[C@@H]1NC(=O)[C@H](C)N(C)C(=O)C[C@@H](C(=O)N(C)C)N(C)C(=O)[C@H](C2CCCC2)N(C)C(=O)C2(CCC2)NC(=O)[C@@H]2CCCN2C(=O)[C@H](CCc2cc(F)c(C(F)(F)F)c(F)c2)NC(=O)CN(C)C(=O)[C@H](Cc2ccc(C(F)(F)F)cc2)N2CC/C=C\C[C@@H](C2=O)N(C)C(=O)CN(C)C1=O [PP1271, (2S,8S,14S,20S,23S,27S,30S,36S,38Z)-20-cyclopentyl-8-[2-[3,5-difluoro-4-(trifluoromethyl)phenyl]ethyl]-N,N,4,19,22,26,27,32,35-nonamethyl-30-[(1S)-1-methylpropyl]-3,6,9,15,18,21,25,28,31,34,42-undecaoxo-2-[[4-(trifluoromethyl)phenyl]methyl]spiro[1,4,7,10,16,19,22,26,29,32,35-undecazatricyclo[34.5.1.0^10,14]dotetracont-38-ene-17,1′-cyclobutane]-23-carboxamide] | 90.7 |  | 0.054 |  |  |  | AA (a compound having 20 or more is denoted as AA) | A (a compound having 10 or more and less than 20 is denoted as A) |  | 
CCO[C@@H]1C[C@H]2C(=O)NC3(CCCC3)C(=O)N(C)[C@@H](C3CCCC3)C(=O)N(C)[C@H](C(=O)N(C)C)CC(=O)N(C)[C@@H](C)C(=O)N[C@@H]([C@@H](C)CC)C(=O)N(C)CC(=O)N(C)[C@H]3C/C=C\CCN(C3=O)[C@@H](CC3CCCCC3)C(=O)N(C)CC(=O)N[C@@H](CCc3cc(F)c(C(F)(F)F)c(F)c3)C(=O)N2C1 [PP1470] | 111 |  | 0.22 |  |  |  | A (a compound having 10 or more and less than 20 is denoted as A) | A (a compound having 10 or more and less than 20 is denoted as A) |  | 
CCO[C@@H]1C[C@H]2C(=O)NC3(CCC3)C(=O)N(C)[C@@H](C3CCCC3)C(=O)N(C)[C@H](C)CC(=O)N(C)[C@@H](CC3CC3)C(=O)N[C@@H]([C@@H](C)CC)C(=O)N(C)CC(=O)N(C)[C@H]3C/C=C\CCN(C3=O)[C@@H](Cc3ccc(C)cc3)C(=O)N(C)CC(=O)N[C@@H](CCc3cc(F)c(C(F)(F)F)c(F)c3)C(=O)N2C1 [PP1410] | 51 |  | 0.32 |  |  |  | B (a compound having 3 or more and less than 10 is denoted as B) | B (a compound having 3 or more and less than 10 is denoted as B) |  | 
CC[C@H](C)[C@@H]1NC(=O)[C@H](COC)N(C)C(=O)C[C@@H](C(=O)N(CC)CC)N(C)C(=O)[C@H](C2CCCC2)N(C)C(=O)C2(CC(C)(C)C2)NC(=O)[C@@H]2C[C@H](C)CN2C(=O)[C@H](CCc2ccc(C(F)(F)F)c(OC)c2)NC(=O)CN(C)C(=O)[C@H](Cc2ccc(C)cc2)N2CC/C=C\C[C@@H](C2=O)N(C)C(=O)CN(C)C1=O [PP2441] | 22.9 | 0.29 |  |  | AA (a compound having 20 or more is denoted as AA) | A (a compound having 10 or more and less than 20 is denoted as A) |  |  |  | 
CCO[C@@H]1C[C@H]2C(=O)NC3(CC(C)(C)C3)C(=O)N(C)[C@@H](C3CCCC3)C(=O)N(C)[C@H](C(=O)N(C)C)CC(=O)N(C)[C@@H](COC)C(=O)N[C@@H]([C@@H](C)CC)C(=O)N(C)CC(=O)N(C)[C@H]3C/C=C\CCN(C3=O)[C@@H](Cc3ccc(C)cc3)C(=O)N(C)CC(=O)N[C@@H](CCc3ccc(C(F)(F)F)c(Cl)c3)C(=O)N2C1 [PP2389] | 21.3 | 0.079 |  |  | A (a compound having 10 or more and less than 20 is denoted as A) | B (a compound having 3 or more and less than 10 is denoted as B) |  |  |  | 

Further lines, with some results ahead:

IC50 [1] [nM] | Kd ([2]; SPR, Single Cycle Kinetics) [nM] | Kd [2, 5] [nM] | Kd ([2]; SPR Single Cycle Kinetics, 1:1 binding model) [nM] | SMILES | NRAS/KRAS (ratio of KD value for NRAS to KD value for KRAS) [3] | HRAS/KRAS (ratio of KD value for HRAS to KD value for KRAS) [4] | NRAS/KRAS (ratio of KD value for NRAS to KD value for KRAS) ([3]; KD ratio class) | HRAS/KRAS (ratio of KD value for HRAS to KD value for KRAS) ([4]; KD ratio class) | NRAS/KRAS (ratio of KD value with respect to GDP-bound NRAS wild-type protein to KD value with respect to KRAS) ([3]; SPR KD ratio NRAS/KRAS, class symbols) | HRAS/KRAS (ratio of KD value with respect to GDP-bound HRAS wild-type protein to KD value with respect to KRAS) ([4]; SPR KD ratio HRAS/KRAS, class symbols)
8.9 | 0.061 |  |  | CCO[C@@H]1C[C@H]2C(=O)NC3(CC(C)(C)C3)C(=O)N(C)[C@@H](C3CCCC3)C(=O)N(C)[C@H](C(=O)N(C)CC)CC(=O)N(C)[C@@H](COC)C(=O)N[C@@H]([C@@H](C)CC)C(=O)N(C)CC(=O)N(C)[C@H]3C/C=C\CCN(C3=O)[C@@H](Cc3ccc(C)cc3)C(=O)N(C)CC(=O)N[C@@H](CCc3ccc(C(F)(F)F)c(Cl)c3)C(=O)N2C1 [PP2507] | AA (a compound having 20 or more is denoted as AA) | A (a compound having 10 or more and less than 20 is denoted as A) |  |  |  | 
9.4 |  |  | 0.21 | CCC[C@H]1C(=O)N[C@@H]([C@@H](C)CC)C(=O)N2C[C@@H](OC)C[C@H]2C(=O)N(C)[C@H]2C/C=C\CCN(C2=O)[C@@H](Cc2ccc(C)cc2)C(=O)N(C)CC(=O)N[C@@H](CCc2cc(F)c(C(F)(F)F)c(F)c2)C(=O)N2C[C@H](OCC)C[C@H]2C(=O)NC2(CC(C)(C)C2)C(=O)N(C)[C@@H](C2CCCC2)C(=O)N(C)[C@H](C(=O)N(C)C)CC(=O)N1C [PP2556] |  |  |  |  | A (a compound having 10 or more and less than 20 is denoted as A) | B (a compound having 3 or more and less than 10 is denoted as B)
18.7 | 0.71 |  |  | CCOC[C@H]1C(=O)N[C@@H]([C@@H](C)CC)C(=O)N(C)CC(=O)N(C)[C@H]2C/C=C\CCN(C2=O)[C@@H](CC2CCC(F)(F)CC2)C(=O)N(C)CC(=O)N[C@@H](CCc2ccc(C(F)(F)F)c(Cl)c2)C(=O)N2C[C@H](OCC)C[C@H]2C(=O)NC2(CC(C)(C)C2)C(=O)N(C)[C@@H](C(CC)CC)C(=O)N(C)[C@H](C(=O)N(C)C)CC(=O)N1C [PP2460] | A (a compound having 10 or more and less than 20 is denoted as A) | A (a compound having 10 or more and less than 20 is denoted as A) |  |  |  | 
